The source of these data is PMC12693182, “Synthesis and QSAR Studies of Claramine Derivatives, a New Class of Broad-Spectrum Antimicrobial Agents” (Molecules, 2025).

In test [1] the test system is Chinese hamster Ovary cells (CHO-K1). Briefly: Cytotoxicity assay (WST-1 / Neutral Red). It is filed as cell-based. The note with it: 24-h incubation; for IC50: Cricetulus griseus, 24 h. Here is the method:
The cytotoxic activities of compounds were assessed on Chinese hamster Ovary cells (CHO-K1) provided from ATCC-LGC Standards Sarl (Molsheim, France). Cells were maintained in Mc Coy’s 5A (CHO) medium supplemented with 10% bovine calf serum, 2 mM glutamine, and 100 U mL^−1/10 µg mL^−1 penicillin/streptomycin mixtures. For the cytotoxicity experiments, they were seeded in 96-well plates and incubated at 37 °C in humidified atmosphere containing 5% CO2 overnight, then concentrations of compounds were incorporated in triplicate cultures. After a 24-h incubation period at 37 °C, cells were submitted to three successive washes in phosphate buffer saline (PBS) and cell viability was evaluated by two different vital dyes: • i. A first set of cell cultures was incubated in PBS containing 10% WST-1 for 30 min at 37 °C, 5% CO2. Cell viability was evaluated by the assessment of WST-1 absorbance at 450 nm in a microplate spectrophotometer. • ii. A second set of cell cultures was placed into Neutral Red medium (50 μg mL^−1 Neutral Red in complete medium) and incubated for 3 h at 37 °C, 5% CO2. Then the Neutral Red medium was removed and the distaining solution (50% ethanol, 1% acetic acid, 49% distilled water; 50 µL per well) was added into the wells. The plates were shaken for 15–20 min at room temperature in the dark. Cell viability was evaluated by the assessment of absorbance at 540 nm in a microplate spectrophotometer.
Results were expressed as percentages of cell viability about the control (culture medium-only), which corresponded to 100% cell viability. Dose-response curves were calculated by non-linear regression analysis with TableCurve 2D software (V 5.0.1) (Systat Software Inc., San Jose, CA, USA). The Inhibitory Concentration 50% (IC50) was defined as the concentration of compounds that induced a 50% decrease of viable cells.
(Tetrazolium dyes change colour on reduction, which living cells bring about.)

A further test relates to S. aureus 340. Briefly: MIC, broth microdilution. The note with it: for MIC: Staphylococcus aureus, 340, 24 h; for MIC S. aureus 340: 24 h. Format: cell-based, Staphylococcus aureus. The procedure:
(§1) Antimicrobial activity of the compounds was studied by determination of minimal inhibitory concentrations (MIC) according to the NCCLS guidelines M7-A2 using the microbroth dilution methods. The bacteria strains were grown on trypticase soy agar (Becton Dickinson) at 37 °C for 24 h. Inocula were prepared in TCE (tryptone 0.1%, […], wt/vol) by ajusting the turbidity at 623 nm to obtain 1–3 10^5 CFU/mL.
(§2) Antimicrobial activities of the compounds were determined by using a broth microdilution method performed in sterile 96-well microplates. All compounds were solubilized in water at a concentration of 10 mM and were transferred to each microplate well in order to obtain a two-fold serial dilution in 100 µL of broth and 100 µL of inoculum containing 2–6 10^5 CFU of each bacterium were added to each well. Some wells were reserved for positive controls and inoculum viability.
(In broth dilution the organism is exposed to a series of concentrations in liquid medium.)

The subject of another test is P. aeruginosa 1051575. Kind of test: MIC, broth microdilution. Format: cell-based, Pseudomonas aeruginosa. To be noted: for MIC: Pseudomonas aeruginosa, 1051575, 24 h; for MIC / MIC P. aeruginosa 1051575: 24 h. Here is the method:
as §1, §2

The next test deals with E. coli 1956. Briefly: MIC, broth microdilution. It is filed as cell-based, Escherichia coli. To be noted: for MIC: Escherichia coli, 1956, 24 h. The procedure: as §1, §2
For another test, the system named is E. coli ATCC 25922. Kind of test: MIC, broth microdilution. It is filed as cell-based, Escherichia coli. To be noted: ATCC strain; for MIC: Escherichia coli, ATCC25922, 24 h; for MIC E. coli 25922: 24 h. The procedure: as §1, §2
For the next test, the system named is E. faecalis ATCC29212. Briefly: MIC, broth microdilution. It is filed as cell-based, Enterococccus faecalis. The note with it: Enterococcus faecalis, ATCC29212, 24 h, ATCC strain, read-out: MIC E. faecalis 29212. The procedure:
as §1, §2

In the next test the test system is S. intermedius 1051997. Briefly: MIC, broth microdilution. The note with it: for MIC: Staphylococcus intermedius, 1051997, 24 h, 24 h; for Therapeutic Ratio (TR): IC50 (CHO)/MIC, S. intermedius. It is filed as cell-based, Staphylococcus intermedius. The procedure:
as §1, §2

A further test has as its system S. aureus ATCC 25923. Kind of test: MIC, broth microdilution. Format: cell-based, Staphylococcus aureus. To be noted: Staphylococcus aureus, ATCC25923, 24 h, ATCC strain. The procedure: as §1, §2
The test system of another test is P. aeruginosa ATCC 27853. Briefly: MIC, broth microdilution. Format: cell-based, Pseudomonas aeruginosa. The note with it: ATCC strain; for MIC: Pseudomonas aeruginosa, ATCC27853, 24 h. The procedure:
as §1, §2

Converted amounts (≈) assume the structure as drawn.

For orientation: IC50 means the concentration that inhibits the measured activity by half. As a reminder, the MIC is the smallest concentration in the dilution series that meets the test's criterion for growth inhibition. `CC(C)OC(=O)CCC(C)C1CCC2C3C(O)CC4CC(NCCCN5CCN(CCCN)CC5)CCC4(C)C3CC(O)C12C` (centres unmarked) [Claramine B16] came in with an IC50 in test [1] of 260 µg/mL (≈ 411 µM). Besides, the MIC against S. aureus 340 and in the test with P. aeruginosa 1051575 was 16 µg/mL (≈ 25.3 µM) in each case.
`CC(C)OC(=O)CCC(C)C1CCC2C3C(O)CC4CC(NCCN(CCN)CCN)CCC4(C)C3CC(O)C12C` (centres unmarked) [Claramine B19] showed an IC50 in test [1] of 81 µg/mL (≈ 140 µM). Also, the MIC against S. aureus 340 was 14 µg/mL (≈ 24.2 µM); in the test with P. aeruginosa 1051575, 58 µg/mL (≈ 100 µM).
Take `COC(=O)CCC(C)C1CCC2C3C(O)CC4CC(NCCCNCCCCNCCCN)CCC4(C)C3CCC12C` (centres unmarked) [Claramine C01]: the MIC turned out to be 60 µg/mL (≈ 102 µM) in the test on E. coli 1956; 30 µg/mL (≈ 50.8 µM) in the test with E. coli ATCC 25922; 15 µg/mL (≈ 25.4 µM) in the test with E. faecalis ATCC29212; 2 µg/mL (≈ 3.38 µM) in the test with S. intermedius 1051997; 4 µg/mL (≈ 6.77 µM) in the test with S. aureus ATCC 25923; 4 µg/mL (≈ 6.77 µM) against S. aureus 340. In addition, the MIC against P. aeruginosa ATCC 27853 turned out to be 30 µg/mL (≈ 50.8 µM); against P. aeruginosa 1051575, 7 µg/mL (≈ 11.8 µM). This compound also registered an IC50 in test [1] of 24 µg/mL (≈ 40.6 µM).
For `COC(=O)CCC(C)C1CCC2C3C(O)CC4CC(NCCCNCCCNCCCN)CCC4(C)C3CCC12C` (centres unmarked) [Claramine C02], the “MIC E. coli 25922” value against E. coli ATCC 25922 is on record as 15 µg/mL (≈ 26 µM). In addition, in test [1], it took 22 µg/mL (≈ 38.1 µM) to reach half-maximal inhibition (IC50). For the same compound, the MIC in the test with E. faecalis ATCC29212 was found to be 15 µg/mL (≈ 26 µM); in the test on S. intermedius 1051997, 2 µg/mL (≈ 3.47 µM); with S. aureus ATCC 25923 it was 4 µg/mL (≈ 6.93 µM); in the test on S. aureus 340, 4 µg/mL (≈ 6.93 µM); in the test on P. aeruginosa ATCC 27853 it was 29 µg/mL (≈ 50.3 µM); in the test with P. aeruginosa 1051575, 7 µg/mL (≈ 12.1 µM).
Take `COC(=O)CCC(C)C1CCC2C3C(O)CC4CC(NCCCNCCCN)CCC4(C)C3CCC12C` (centres unmarked) [Claramine C04]: the IC50 in test [1] was found to be 68 µg/mL (≈ 131 µM). In addition, the MIC was found to be 7 µg/mL (≈ 13.5 µM) in the test on S. aureus 340 and 26 µg/mL (≈ 50 µM) in the test with P. aeruginosa 1051575.
Take `CC(C)OC(=O)CCC(C)C1CCC2C3C(O)CC4CC(NCCCNCCCNCCCN)CCC4(C)C3CCC12C` (centres unmarked) [Claramine C17]: the MIC in the test on E. coli 1956 was 10 µg/mL (≈ 16.5 µM); against E. coli ATCC 25922, 16 µg/mL (≈ 26.4 µM); in the test with E. faecalis ATCC29212, 8 µg/mL (≈ 13.2 µM); against S. intermedius 1051997, 0.8 µg/mL (≈ 1.32 µM); in the test with S. aureus ATCC 25923, 4 µg/mL (≈ 6.61 µM); with S. aureus 340 it was 2 µg/mL (≈ 3.31 µM). The compound further had an MIC with P. aeruginosa ATCC 27853 of 16 µg/mL (≈ 26.4 µM). In addition, the “IC50 CHO” value in test [1] is recorded as 85 µg/mL (≈ 141 µM). In test [1], this compound registered an IC50 greater than 60 µg/mL. In addition, the “Therapeutic Ratio (TR)” value in the test on S. intermedius 1051997 was 65–114; in the test on P. aeruginosa 1051575 (IC50 (CHO)/MIC, P. aeruginosa) it was greater than 10.
In the case of `CC(C)OC(=O)CCC(C)C1CCC2C3C(O)CC4CC(NCCCNCCCN)CCC4(C)C3CCC12C` (centres unmarked) [Claramine C19], the MIC with E. coli 1956 was determined as 14 µg/mL (≈ 25.6 µM); with E. coli ATCC 25922, 14 µg/mL (≈ 25.6 µM); in the test on E. faecalis ATCC29212, 4 µg/mL (≈ 7.3 µM); against S. intermedius 1051997, 2 µg/mL (≈ 3.65 µM); with S. aureus ATCC 25923, 7 µg/mL (≈ 12.8 µM); in the test on P. aeruginosa ATCC 27853, 28 µg/mL (≈ 51.1 µM). In the test with S. intermedius 1051997, the “Therapeutic Ratio (TR)” value is 65–114. Moreover, the “MIC S. aureus 340” value with S. aureus 340 is reported as 2 µg/mL (≈ 3.65 µM). Also, the “MIC P. aeruginosa 1051575” value against P. aeruginosa 1051575 is on record as 14 µg/mL (≈ 25.6 µM).
For `CC(C)OC(=O)CCC(C)C1CCC2C3C(O)CC4CC(NCCCN5CCN(CCCN)CC5)CCC4(C)C3CCC12C` (centres unmarked) [Claramine C24], the MIC is 30 µg/mL (≈ 48.6 µM) in the test with E. coli 1956; 15 µg/mL (≈ 24.3 µM) in the test with E. coli ATCC 25922; 15 µg/mL (≈ 24.3 µM) in the test on E. faecalis ATCC29212; 4 µg/mL (≈ 6.48 µM) against S. intermedius 1051997; 8 µg/mL (≈ 13 µM) with S. aureus ATCC 25923; 30 µg/mL (≈ 48.6 µM) against P. aeruginosa ATCC 27853. Further, the “MIC S. aureus 340” value against S. aureus 340 turned out to be 8 µg/mL (≈ 13 µM). In the test with P. aeruginosa 1051575, the “MIC P. aeruginosa 1051575” value is given as 30 µg/mL (≈ 48.6 µM).
For `CC(C)OC(=O)CCC(C)C1CCC2C3C(O)CC4CC(NCCN(CCN)CCN)CCC4(C)C3CCC12C` (centres unmarked) [Claramine C25], in test [1], the concentration for half-maximal inhibition (IC50) stood at 141 µg/mL (≈ 250 µM). Moreover, the MIC in the test on S. aureus 340 is 14 µg/mL (≈ 24.9 µM); with P. aeruginosa 1051575, 28 µg/mL (≈ 49.7 µM).
On the same counts, the results for `CC(C)OC(=O)CCC(C)C1CCC2C3CCC4CC(NCCCNCCCN)CCC4(C)C3CCC12C` (centres unmarked) [Claramine E04] are 13 µg/mL (≈ 24.4 µM), 3 µg/mL (≈ 5.64 µM) and 3 µg/mL (≈ 5.64 µM).
On to `CC[C@H]1OC(=O)[C@H](C)[C@@H](O[C@H]2C[C@@](C)(OC)[C@@H](O)[C@H](C)O2)[C@H](C)[C@@H](O[C@@H]2O[C@H](C)C[C@H](N(C)C)[C@H]2O)[C@](C)(O)C[C@@H](C)C(=O)[C@H](C)[C@@H](O)[C@]1(C)O` [Ery, Erythromycine, reference compound], for which the minimum inhibitory concentration (MIC) in the test on E. faecalis ATCC29212, with S. intermedius 1051997, in the test on S. aureus ATCC 25923 and in the test on S. aureus 340 was 1 µg/mL (≈ 1.36 µM) throughout.
Take Colistine [reference compound]: the “MIC E. coli 1956” value in the test with E. coli 1956 (24 h) turned out to be 0.5 µg/mL. Moreover, the “MIC E. coli 25922” value with E. coli ATCC 25922 is given as 0.5 µg/mL. In addition, in the test on P. aeruginosa ATCC 27853 (24 h), the “MIC P. aeruginosa 27853” value is 0.5 µg/mL. Further, the “MIC P. aeruginosa 1051575” value against P. aeruginosa 1051575 is 0.5 µg/mL.
